Assay results taken from the NIST ThermoML archive (doi:10.1016/j.jct.2010.12.010).
“And” between values parts separate entries of the source, which are not always exact repeats. Equal entries are not always repeated. ± gives the expanded uncertainty stated by the source.

Settings: Liquid, Manometric method

For `O` [water], the “vapor or sublimation pressure” value (285.15 K) was 1.362 ± 0.081 kPa, the “vapor or sublimation pressure” value (293.15 K) was 2.277 ± 0.083 kPa and the “vapor or sublimation pressure” value (295.14 K) was 2.562 ± 0.084 kPa. For the same compound, the “vapor or sublimation pressure” value (303.15 K) was 4.165 ± 0.087 kPa, the “vapor or sublimation pressure” value (313.15 K) was 7.284 ± 0.095 kPa and the “vapor or sublimation pressure” value (315.19 K) was 8.02 ± 0.097 kPa. For the same compound, the “vapor or sublimation pressure” value (323.15 K) was 12.23 ± 0.11 kPa, the “vapor or sublimation pressure” value (325.11 K) was 13.5 ± 0.11 kPa and 13.53 ± 0.11 kPa and the “vapor or sublimation pressure” value (325.13 K) was 13.5 ± 0.11 kPa and 13.52 ± 0.11 kPa and 13.53 ± 0.11 kPa. For the same compound, the “vapor or sublimation pressure” value (333.15 K) was 19.82 ± 0.12 kPa, the “vapor or sublimation pressure” value (335.12 K) was 21.77 ± 0.13 kPa and the “vapor or sublimation pressure” value (343.15 K) was 31.09 ± 0.15 kPa. For the same compound, the “vapor or sublimation pressure” value (345.05 K) was 33.84 ± 0.17 kPa, the “vapor or sublimation pressure” value (345.07 K) was 33.85 ± 0.17 kPa and 33.84 ± 0.17 kPa and the “vapor or sublimation pressure” value (353.15 K) was 47.34 ± 0.19 kPa. The “vapor or sublimation pressure” value (355.03 K) was 51.15 ± 0.21 kPa, the “vapor or sublimation pressure” value (363.15 K) was 70.22 ± 0.25 kPa and the “vapor or sublimation pressure” value (364.97 K) was 75.14 ± 0.27 kPa [middle of 5 runs].
For `NCCCN` [1,3-propanediamine], the “vapor or sublimation pressure” value (284.84 K) was 0.3186 ± 0.078 kPa and 0.3177 ± 0.078 kPa, the “vapor or sublimation pressure” value (293.15 K) was 0.5332 ± 0.079 kPa and the “vapor or sublimation pressure” value (294.82 K) was 0.5842 ± 0.079 kPa. The “vapor or sublimation pressure” value (303.15 K) was 0.9648 ± 0.08 kPa, the “vapor or sublimation pressure” value (313.15 K) was 1.688 ± 0.082 kPa and the “vapor or sublimation pressure” value (314.79 K) was 1.829 ± 0.082 kPa. For the same compound, the “vapor or sublimation pressure” value (323.15 K) was 2.863 ± 0.084 kPa, the “vapor or sublimation pressure” value (324.9 K) was 3.145 ± 0.085 kPa and the “vapor or sublimation pressure” value (333.15 K) was 4.72 ± 0.089 kPa. For the same compound, the “vapor or sublimation pressure” value (334.87 K) was 5.175 ± 0.09 kPa, the “vapor or sublimation pressure” value (343.15 K) was 7.58 ± 0.097 kPa and the “vapor or sublimation pressure” value (344.87 K) was 8.263 ± 0.098 kPa. The “vapor or sublimation pressure” value (353.15 K) was 11.88 ± 0.11 kPa, the “vapor or sublimation pressure” value (354.83 K) was 12.67 ± 0.11 kPa and the “vapor or sublimation pressure” value (363.15 K) was 18.22 ± 0.13 kPa. For the same compound, the “vapor or sublimation pressure” value (364.78 K) was 19.47 ± 0.13 kPa.
In the case of `NCCN` [ethane-1,2-diamine], the “vapor or sublimation pressure” value (285.5 K) is reported as 0.659 ± 0.079 kPa, the “vapor or sublimation pressure” value (293.15 K) is reported as 1.139 ± 0.08 kPa and the “vapor or sublimation pressure” value (303.15 K) is reported as 2.179 ± 0.083 kPa. The “vapor or sublimation pressure” value (305.44 K) was 2.559 ± 0.084 kPa, the “vapor or sublimation pressure” value (313.15 K) was 3.937 ± 0.087 kPa and the “vapor or sublimation pressure” value (315.43 K) was 4.484 ± 0.089 kPa. For the same compound, the “vapor or sublimation pressure” value (315.48 K) was 4.485 ± 0.089 kPa, the “vapor or sublimation pressure” value (323.15 K) was 6.767 ± 0.094 kPa and the “vapor or sublimation pressure” value (326.2 K) was 7.827 ± 0.097 kPa. The “vapor or sublimation pressure” value (333.15 K) was 11.13 ± 0.11 kPa, the “vapor or sublimation pressure” value (335.88 K) was 12.41 ± 0.11 kPa and the “vapor or sublimation pressure” value (343.15 K) was 17.62 ± 0.12 kPa. For the same compound, the “vapor or sublimation pressure” value (345.7 K) was 19.74 ± 0.13 kPa and 19.73 ± 0.13 kPa and 19.72 ± 0.13 kPa, the “vapor or sublimation pressure” value (353.15 K) was 26.93 ± 0.15 kPa and the “vapor or sublimation pressure” value (355.67 K) was 29.85 ± 0.16 kPa and 29.83 ± 0.16 kPa. The “vapor or sublimation pressure” value (355.69 K) was 29.84 ± 0.16 kPa, the “vapor or sublimation pressure” value (363.15 K) was 39.94 ± 0.19 kPa and the “vapor or sublimation pressure” value (365.6 K) was 43.83 ± 0.19 kPa [middle of 4 runs]. The “vapor or sublimation pressure” value (365.63 K) was 43.82 ± 0.19 kPa and 43.83 ± 0.19 kPa and 43.81 ± 0.19 kPa.
For `CC(N)CN` (centres undefined) [1,2-propanediamine], the “vapor or sublimation pressure” value (284.01 K) was 0.5922 ± 0.079 kPa, the “vapor or sublimation pressure” value (293.15 K) was 1.085 ± 0.08 kPa and the “vapor or sublimation pressure” value (293.98 K) was 1.147 ± 0.08 kPa and 1.145 ± 0.08 kPa. For the same compound, the “vapor or sublimation pressure” value (303.15 K) was 2.004 ± 0.082 kPa, the “vapor or sublimation pressure” value (303.91 K) was 2.1 ± 0.083 kPa and 2.098 ± 0.083 kPa and the “vapor or sublimation pressure” value (313.15 K) was 3.535 ± 0.086 kPa. For the same compound, the “vapor or sublimation pressure” value (313.84 K) was 3.667 ± 0.086 kPa and 3.669 ± 0.086 kPa and 3.659 ± 0.086 kPa, the “vapor or sublimation pressure” value (323.15 K) was 5.985 ± 0.092 kPa and the “vapor or sublimation pressure” value (324.02 K) was 6.238 ± 0.093 kPa. For the same compound, the “vapor or sublimation pressure” value (333.15 K) was 9.764 ± 0.1 kPa, the “vapor or sublimation pressure” value (334 K) was 10.11 ± 0.11 kPa and the “vapor or sublimation pressure” value (343.15 K) was 15.41 ± 0.12 kPa. For the same compound, the “vapor or sublimation pressure” value (353.15 K) was 23.61 ± 0.14 kPa, the “vapor or sublimation pressure” value (363.15 K) was 35.21 ± 0.18 kPa and the “vapor or sublimation pressure” value (363.91 K) was 36.31 ± 0.17 kPa and 36.33 ± 0.17 kPa.
For `NCCCCN` [1,4-butanediamine], the “vapor or sublimation pressure” value (284.92 K) was 0.1292 ± 0.078 kPa and 0.1296 ± 0.078 kPa, the “vapor or sublimation pressure” value (293.15 K) was 0.2012 ± 0.078 kPa and the “vapor or sublimation pressure” value (303.15 K) was 0.3324 ± 0.078 kPa. For the same compound, the “vapor or sublimation pressure” value (312.83 K) was 0.54 ± 0.079 kPa, the “vapor or sublimation pressure” value (313.15 K) was 0.5322 ± 0.079 kPa and the “vapor or sublimation pressure” value (323.15 K) was 0.8282 ± 0.079 kPa. For the same compound, the “vapor or sublimation pressure” value (332.86 K) was 1.276 ± 0.08 kPa, the “vapor or sublimation pressure” value (333.15 K) was 1.256 ± 0.08 kPa and the “vapor or sublimation pressure” value (342.85 K) was 1.703 ± 0.082 kPa. The “vapor or sublimation pressure” value (343.15 K) was 1.859 ± 0.082 kPa, the “vapor or sublimation pressure” value (352.87 K) was 2.691 ± 0.084 kPa and 2.692 ± 0.084 kPa and the “vapor or sublimation pressure” value (353.15 K) was 2.692 ± 0.084 kPa. For the same compound, the “vapor or sublimation pressure” value (362.86 K) was 3.797 ± 0.086 kPa and 3.813 ± 0.086 kPa and 3.794 ± 0.086 kPa, the “vapor or sublimation pressure” value (362.88 K) was 3.8 ± 0.086 kPa and the “vapor or sublimation pressure” value (362.9 K) was 3.807 ± 0.086 kPa. The “vapor or sublimation pressure” value (363.15 K) was 3.822 ± 0.087 kPa.
